Measurements as given in article PMC5218480 (PLoS ONE, 2017).

System: MV-4-11 cells
Assay: Gene expression microarray analysis (Affymetrix PrimeView) and GSEA
Type: cell-based, human
Set-up: RFU PODN (11730768_x_at) / Fold change /veh PODN (11730768_x_at) / RFU LINC00158 (11744669_a_at) / Fold change /veh LINC00158 (11744669_a_at) / RFU DUSP10 (11751237_a_at) / Fold change /veh DUSP10 (11751237_a_at) / RFU ID3 (11757404_x_at) / Fold change /veh ID3 (11757404_x_at) / RFU PLEKHG5 (11737974_s_at) / Fold change /veh PLEKHG5 (11737974_s_at) / RFU LRRC4B (11730491_at) / Fold change /veh LRRC4B (11730491_at) / RFU GIMAP4 (11747438_a_at) / Fold change /veh GIMAP4 (11747438_a_at) / RFU KRT8 (11758183_x_at) / Fold change /veh KRT8 (11758183_x_at) / RFU CNN1 (11734310_a_at) / Fold change /veh CNN1 (11734310_a_at) / RFU VPS37D (11726825_at) / Fold change /veh VPS37D (11726825_at) / RFU C10orf10 (11716522_x_at) / Fold change /veh C10orf10 (11716522_x_at) / RFU KIR2DL2 /// KIR2DL4 /// KIR2DL5A /// KIR2DL5B /// KIR2DS1 /// KIR2DS2 /// KIR2DS3 /// KIR2DS4 /// KIR3DL3 /// KIR3DL3 /// KIR3DS1 (11738374_at) / Fold change /veh KIR2DL2 /// KIR2DL4 /// KIR2DL5A /// KIR2DL5B /// KIR2DS1 /// KIR2DS2 /// KIR2DS3 /// KIR2DS4 /// KIR3DL3 /// KIR3DL3 /// KIR3DS1 (11738374_at) / RFU C1QL1 (11718748_at) / Fold change /veh C1QL1 (11718748_at) / RFU TMPRSS4 (11747572_a_at) / Fold change /veh TMPRSS4 (11747572_a_at) / RFU HAMP (11756126_x_at) / Fold change /veh HAMP (11756126_x_at) / RFU RNFT2 (11725882_a_at) / Fold change /veh RNFT2 (11725882_a_at) / RFU NR4A2 (11747474_a_at) / Fold change /veh NR4A2 (11747474_a_at) / RFU ABCC12 (11746883_a_at) / Fold change /veh ABCC12 (11746883_a_at) / RFU TMEM136 (11760407_x_at) / Fold change /veh TMEM136 (11760407_x_at) / RFU CLDN22 /// WWC2 (11732394_at) / Fold change /veh CLDN22 /// WWC2 (11732394_at) / RFU HLA-DPB1 (11760878_x_at) / Fold change /veh HLA-DPB1 (11760878_x_at) / RFU SPINT1 (11716480_a_at) / Fold change /veh SPINT1 (11716480_a_at) / RFU GAP43 (11754022_s_at) / Fold change /veh GAP43 (11754022_s_at) / RFU A4GNT (11735810_at) / Fold change /veh A4GNT (11735810_at) / RFU PRB3 (11715151_x_at) / Fold change /veh PRB3 (11715151_x_at) / RFU TUBB4B (11761932_at) / Fold change /veh TUBB4B (11761932_at) / RFU CAPN14 (11732068_a_at) / Fold change /veh CAPN14 (11732068_a_at) / RFU TMCC2 (11721928_a_at) / Fold change /veh TMCC2 (11721928_a_at) / RFU IRGQ (11745062_a_at) / Fold change /veh IRGQ (11745062_a_at) / RFU FAM174B (11720279_a_at) / Fold change /veh FAM174B (11720279_a_at) / RFU TMPRSS4 (11748680_a_at) / Fold change /veh TMPRSS4 (11748680_a_at) / RFU FAM212B (11763350_a_at) / Fold change /veh FAM212B (11763350_a_at) / RFU PLEKHG5 (11743358_a_at) / Fold change /veh PLEKHG5 (11743358_a_at) / RFU ZSCAN30 (11745921_a_at) / Fold change /veh ZSCAN30 (11745921_a_at) / RFU CMKLR1 (11741424_a_at) / Fold change /veh CMKLR1 (11741424_a_at) / RFU LOC101060620 /// MAPK8IP1 (11723275_at) / Fold change /veh LOC101060620 /// MAPK8IP1 (11723275_at) / RFU SPTSSB (11747773_x_at) / Fold change /veh SPTSSB (11747773_x_at) / RFU PRSS12 (11739890_at) / Fold change /veh PRSS12 (11739890_at) / RFU BIN1 (11741810_x_at) / Fold change /veh BIN1 (11741810_x_at) / RFU WNT11 (11732464_a_at) / Fold change /veh WNT11 (11732464_a_at) / RFU C10orf10 (11716521_a_at) / Fold change /veh C10orf10 (11716521_a_at) / RFU C5orf56 (11738089_at) / Fold change /veh C5orf56 (11738089_at) / RFU CYB561 (11721691_x_at) / Fold change /veh CYB561 (11721691_x_at) / RFU ANKRD19P (11752326_a_at) / Fold change /veh ANKRD19P (11752326_a_at) / RFU OR2T12 /// OR2T33 /// OR2T8 (11738714_s_at) / Fold change /veh OR2T12 /// OR2T33 /// OR2T8 (11738714_s_at) / RFU VCAN (11748164_a_at) / Fold change /veh VCAN (11748164_a_at) / RFU JSRP1 (11732532_at) / Fold change /veh JSRP1 (11732532_at) / RFU KRTAP10-11 (11738290_x_at) / Fold change /veh KRTAP10-11 (11738290_x_at) / RFU MYO3A (11730013_a_at) / Fold change /veh MYO3A (11730013_a_at) / RFU EBF3 (11725865_a_at) / Fold change /veh EBF3 (11725865_a_at) / RFU CAMK2N1 (11719241_x_at) / Fold change /veh CAMK2N1 (11719241_x_at) / RFU C5orf56 (11738088_a_at) / Fold change /veh C5orf56 (11738088_a_at) / RFU OLFML3 (11715873_a_at) / Fold change /veh OLFML3 (11715873_a_at) / RFU LOC100653217 /// NTM (11731650_a_at) / Fold change /veh LOC100653217 /// NTM (11731650_a_at) / RFU MAPK11 (11762145_a_at) / Fold change /veh MAPK11 (11762145_a_at) / RFU FIZ1 (11724087_x_at) / Fold change /veh FIZ1 (11724087_x_at) / RFU OASL (11726364_x_at) / Fold change /veh OASL (11726364_x_at) / RFU SOX15 (11748057_x_at) / Fold change /veh SOX15 (11748057_x_at) / RFU CD79A (11719716_a_at) / Fold change /veh CD79A (11719716_a_at) / RFU HIST1H1D (11736915_at) / Fold change /veh HIST1H1D (11736915_at) / RFU CASKIN2 (11723855_a_at) / Fold change /veh CASKIN2 (11723855_a_at) / RFU LOC730098 (11760151_x_at) / Fold change /veh LOC730098 (11760151_x_at) / RFU OR4N2 (11742367_at) / Fold change /veh OR4N2 (11742367_at) / RFU PRRT2 (11749266_a_at) / Fold change /veh PRRT2 (11749266_a_at) / RFU SNX32 (11753110_a_at) / Fold change /veh SNX32 (11753110_a_at) / RFU CDHR5 (11726645_a_at) / Fold change /veh CDHR5 (11726645_a_at) / RFU RCAN1 (11760418_a_at) / Fold change /veh RCAN1 (11760418_a_at) / RFU FAM167A (11723789_a_at) / Fold change /veh FAM167A (11723789_a_at) / RFU FAM26E (11764081_at) / Fold change /veh FAM26E (11764081_at) / RFU ISYNA1 (11749810_s_at) / Fold change /veh ISYNA1 (11749810_s_at) / RFU ACY1 (11761880_at) / Fold change /veh ACY1 (11761880_at) / RFU 11764098_at / Fold change /veh 11764098_at / RFU SAMD14 (11745864_x_at) / Fold change /veh SAMD14 (11745864_x_at) / RFU NPB (11741838_a_at) / Fold change /veh NPB (11741838_a_at) / RFU TMPRSS6 (11731388_a_at) / Fold change /veh TMPRSS6 (11731388_a_at) / RFU KRTAP10-2 (11738614_at) / Fold change /veh KRTAP10-2 (11738614_at) / RFU ARHGAP8 /// PRR5-ARHGAP8 (11727945_x_at) / Fold change /veh ARHGAP8 /// PRR5-ARHGAP8 (11727945_x_at) / RFU KRTAP5-7 /// NADSYN1 (11734609_at) / Fold change /veh KRTAP5-7 /// NADSYN1 (11734609_at) / RFU RASL12 (11751679_a_at) / Fold change /veh RASL12 (11751679_a_at) / RFU CDKN2B (11736163_a_at) / Fold change /veh CDKN2B (11736163_a_at) / RFU PRF1 (11729649_at) / Fold change /veh PRF1 (11729649_at) / RFU, ZNF638 /// ZNF638-IT1 / Fold change vs veh, ZNF638 /// ZNF638-IT1 / RFU, PANK3 / Fold change vs veh, PANK3 / RFU, SH3YL1 / Fold change vs veh, SH3YL1 / RFU, ZEB2 / Fold change vs veh, ZEB2 / RFU, NRIP1 / Fold change vs veh, NRIP1 / RFU, PTTG1IP / Fold change vs veh, PTTG1IP / RFU, CAPN2 / Fold change vs veh, CAPN2 / RFU, MED14 / Fold change vs veh, MED14 / RFU, SNORA58 / Fold change vs veh, SNORA58 / RFU, C1orf63 / Fold change vs veh, C1orf63 / RFU, LRRFIP1 / Fold change vs veh, LRRFIP1 / RFU, NDUFAF7 / Fold change vs veh, NDUFAF7 / RFU, SLC12A2 / Fold change vs veh, SLC12A2 / RFU, IBTK / Fold change vs veh, IBTK / RFU, ESF1 / Fold change vs veh, ESF1 / Fold change vs veh, TMEM50B / RFU, TAOK1 / Fold change vs veh, TAOK1 / RFU, ACBD3 / Fold change vs veh, ACBD3 / RFU, TMA16 / Fold change vs veh, TMA16 / RFU, RWDD3 / Fold change vs veh, RWDD3 / RFU, BCAT1 / Fold change vs veh, BCAT1 / RFU, EDEM3 / Fold change vs veh, EDEM3 / RFU, TMEM33 / Fold change vs veh, TMEM33 / RFU, WDR75 / Fold change vs veh, WDR75 / RFU, AHCTF1 / Fold change vs veh, AHCTF1 / RFU, TFRC / Fold change vs veh, TFRC / RFU, ZDHHC17 / Fold change vs veh, ZDHHC17 / RFU, NOM1 / Fold change vs veh, NOM1 / RFU, ARL8B / Fold change vs veh, ARL8B / RFU, ZBTB11 / Fold change vs veh, ZBTB11 / RFU, TAMM41 / Fold change vs veh, TAMM41 / RFU, KIAA1704 /// LOC100996395 / Fold change vs veh, KIAA1704 /// LOC100996395 / RFU, ING1 / Fold change vs veh, ING1 / RFU, TRMT61B / Fold change vs veh, TRMT61B / RFU, FUBP3 / Fold change vs veh, FUBP3 / RFU, TP53 / Fold change vs veh, TP53 / RFU, TNKS2 / Fold change vs veh, TNKS2 / RFU, ZFP14 / Fold change vs veh, ZFP14 / RFU, ACTR2 / Fold change vs veh, ACTR2 / RFU, PPP3R1 / Fold change vs veh, PPP3R1 / RFU, PIK3R1 / Fold change vs veh, PIK3R1 / RFU, HNRNPA1 / Fold change vs veh, HNRNPA1 / RFU, RNF170 / Fold change vs veh, RNF170 / RFU, ZNF28 / Fold change vs veh, ZNF28 / RFU, RNGTT / Fold change vs veh, RNGTT / RFU, OGT / Fold change vs veh, OGT / RFU, BRD1 / Fold change vs veh, BRD1 / RFU, MARS / Fold change vs veh, MARS / RFU, ZNF655 / Fold change vs veh, ZNF655 / RFU, FAHD1 / Fold change vs veh, FAHD1 / RFU, BDP1 / Fold change vs veh, BDP1 / RFU, LRRCC1 / Fold change vs veh, LRRCC1 / RFU, ARID1A / Fold change vs veh, ARID1A / RFU, ZNF146 / Fold change vs veh, ZNF146 / RFU, ZNF330 / Fold change vs veh, ZNF330 / RFU, GPN3 / Fold change vs veh, GPN3 / RFU, C9orf123 / Fold change vs veh, C9orf123 / RFU, N4BP2L2 / Fold change vs veh, N4BP2L2 / RFU, ARFIP1 / Fold change vs veh, ARFIP1 / RFU, FAM179B / Fold change vs veh, FAM179B / RFU, BCL10 / Fold change vs veh, BCL10 / RFU, UHRF1BP1L / Fold change vs veh, UHRF1BP1L / RFU, BET1 / Fold change vs veh, BET1 / RFU, CNOT2 / Fold change vs veh, CNOT2 / RFU, ZNF268 / Fold change vs veh, ZNF268 / Fold change vs veh, ZNF507 / RFU, DGCR2 / Fold change vs veh, DGCR2 / RFU, WDSUB1 / Fold change vs veh, WDSUB1 / Fold change vs veh, HSP90B1 /// MIR3652 / RFU, ADSS / Fold change vs veh, ADSS / RFU, GK / Fold change vs veh, GK / RFU, ZNF148 / Fold change vs veh, ZNF148 / RFU, TAF9 / Fold change vs veh, TAF9 / RFU, SLC1A5 / Fold change vs veh, SLC1A5 / RFU, SLMO2 / Fold change vs veh, SLMO2 / RFU, ABCC4 / Fold change vs veh, ABCC4 / RFU, LOC101060439 /// RAP1B / Fold change vs veh, LOC101060439 /// RAP1B / RFU, RFX7 / Fold change vs veh, RFX7 / RFU, GTPBP10 / Fold change vs veh, GTPBP10 / RFU, CNEP1R1 / Fold change vs veh, CNEP1R1 / RFU, BIVM-ERCC5 /// ERCC5 / Fold change vs veh, BIVM-ERCC5 /// ERCC5 / RFU, ILF3 / Fold change vs veh, ILF3 / RFU 11762660_at / Fold change /veh 11762660_at / RFU VCAN (11757783_s_at) / Fold change /veh VCAN (11757783_s_at) / RFU DDX43 (11728927_at) / Fold change /veh DDX43 (11728927_at) / RFU KRT8 (11758188_x_at) / Fold change /veh KRT8 (11758188_x_at) / RFU NKD1 (11759106_at) / Fold change /veh NKD1 (11759106_at) / RFU SRD5A1 (11742802_a_at) / Fold change /veh SRD5A1 (11742802_a_at) / RFU TPSAB1 /// TPSB2 (11721975_s_at) / Fold change /veh TPSAB1 /// TPSB2 (11721975_s_at) / RFU GSTM3 (11746129_a_at) / Fold change /veh GSTM3 (11746129_a_at) / RFU IL23R (11737362_x_at) / Fold change /veh IL23R (11737362_x_at) / RFU TMEM51 (11727254_a_at) / Fold change /veh TMEM51 (11727254_a_at) / RFU PIWIL2 (11732686_x_at) / Fold change /veh PIWIL2 (11732686_x_at) / RFU ORM1 (11744905_x_at) / Fold change /veh ORM1 (11744905_x_at) / RFU CCDC152 (11743942_at) / Fold change /veh CCDC152 (11743942_at) / RFU ECM1 (11717891_a_at) / Fold change /veh ECM1 (11717891_a_at) / RFU IL23R (11748794_a_at) / Fold change /veh IL23R (11748794_a_at) / RFU TNFAIP8L3 (11732012_x_at) / Fold change /veh TNFAIP8L3 (11732012_x_at) / RFU MBOAT4 (11741988_at) / Fold change /veh MBOAT4 (11741988_at) / RFU 11764193_at / Fold change /veh 11764193_at / RFU TMEM53 (11763286_at) / Fold change /veh TMEM53 (11763286_at) / RFU MAGEB2 (11727129_at) / Fold change /veh MAGEB2 (11727129_at) / RFU TMEM200A (11744735_a_at) / Fold change /veh TMEM200A (11744735_a_at) / RFU CCDC152 (11751479_a_at) / Fold change /veh CCDC152 (11751479_a_at) / RFU FAM211A (11726209_a_at) / Fold change /veh FAM211A (11726209_a_at) / RFU RGS16 (11746705_a_at) / Fold change /veh RGS16 (11746705_a_at) / RFU VCAN (11755009_s_at) / Fold change /veh VCAN (11755009_s_at) / RFU RHOB (11743442_s_at) / Fold change /veh RHOB (11743442_s_at) / RFU RGS16 (11720943_a_at) / Fold change /veh RGS16 (11720943_a_at) / RFU RGS16 (11720944_at) / Fold change /veh RGS16 (11720944_at) / RFU, VPS4B / Fold change vs veh, VPS4B / RFU, CREB1 / Fold change vs veh, CREB1 / RFU, DNAJC13 / Fold change vs veh, DNAJC13 / RFU, GNAQ / Fold change vs veh, GNAQ / RFU, CDK5R1 / Fold change vs veh, CDK5R1 / RFU, ZRANB3 / Fold change vs veh, ZRANB3 / RFU, CUL4A / Fold change vs veh, CUL4A / RFU, CCNY / Fold change vs veh, CCNY / RFU, UFL1 / Fold change vs veh, UFL1 / RFU, COG3 / Fold change vs veh, COG3 / RFU, DIAPH2 / Fold change vs veh, DIAPH2 / RFU, SKA2 / Fold change vs veh, SKA2 / RFU, AFF3 / Fold change vs veh, AFF3 / RFU, LMF1 / Fold change vs veh, LMF1 / RFU, IPO11 / Fold change vs veh, IPO11 / RFU, DFFB / Fold change vs veh, DFFB / RFU, FOXP1 / Fold change vs veh, FOXP1 / RFU, CARD8 / Fold change vs veh, CARD8 / RFU, STRN3 / Fold change vs veh, STRN3 / RFU, ADK / Fold change vs veh, ADK / RFU, RASSF2 / Fold change vs veh, RASSF2 / RFU, WIPF1 / Fold change vs veh, WIPF1 / RFU, LARP1B / Fold change vs veh, LARP1B / RFU, RASA1 / Fold change vs veh, RASA1 / RFU, RB1 / Fold change vs veh, RB1 / RFU, PPFIA1 / Fold change vs veh, PPFIA1 / RFU, MAT2A / Fold change vs veh, MAT2A / RFU, CCT5 / Fold change vs veh, CCT5 / RFU, WDR92 / Fold change vs veh, WDR92 / RFU, CUX1 / Fold change vs veh, CUX1 / RFU, TTC7A / Fold change vs veh, TTC7A / RFU, TMEM135 / Fold change vs veh, TMEM135 / RFU, DEPTOR / Fold change vs veh, DEPTOR / RFU, CPM / Fold change vs veh, CPM / RFU, DNAJB6 / Fold change vs veh, DNAJB6 / RFU, CACNA2D3 / Fold change vs veh, CACNA2D3 / RFU, DTX4 / Fold change vs veh, DTX4 / RFU, TFCP2 / Fold change vs veh, TFCP2 / RFU, GMCL1 /// GMCL1P1 / Fold change vs veh, GMCL1 /// GMCL1P1 / RFU, AEBP2 / Fold change vs veh, AEBP2 / RFU, SNHG1 /// SNORD22 /// SNORD25 /// SNORD26 /// SNORD27 /// SNORD28 /// SNORD29 /// SNORD31 / Fold change vs veh, SNHG1 /// SNORD22 /// SNORD25 /// SNORD26 /// SNORD27 /// SNORD28 /// SNORD29 /// SNORD31 / Fold change (Aza/veh), C12orf56 (ProbeSet 11735607_a_at) / Fold change (ACY-1035/veh), C12orf56 (ProbeSet 11735607_a_at) / Fold change (Aza/veh), FGFR1OP (ProbeSet 11751329_s_at) / Fold change (ACY-1035/veh), FGFR1OP (ProbeSet 11751329_s_at) / Fold change (Aza/veh), VPS36 (ProbeSet 11739960_a_at) / Fold change (ACY-1035/veh), VPS36 (ProbeSet 11739960_a_at) / RFU SYPL1 (11715823_x_at) / Fold change /veh SYPL1 (11715823_x_at) / RFU IGFBP7 (11715501_s_at) / Fold change /veh IGFBP7 (11715501_s_at) / RFU REEP3 (11722064_at) / Fold change /veh REEP3 (11722064_at) / RFU IGLL1 (11728026_x_at) / Fold change /veh IGLL1 (11728026_x_at): dose or concentration left out as unconfirmed
Details: ProbeSet 11748670_a_at; LIST B

## Nc1ccc(-c2cccs2)cc1NC(=O)c1ccc2c(c1)cc(C1CC1)n2CCN1CCOCC1 [ACY-1035]
  Fold change vs veh, PIK3R1: 0.90
